# According to US11161855B2, “Tricyclic fused thiophene derivatives as JAK inhibitors” (Incyte Corporation, priority 2012, dated 2021):
# System: human JAK1 (a.a. 837-1142)
# Experiment: In vitro JAK kinase assay (HTRF), JAK1
# Assay type: biochemical
# Conditions: ratio of IC50s, 1 mM ATP
# Description: Compounds herein were tested for inhibitory activity of JAK targets according to the following in vitro assay described in Park et al., Analytical Biochemistry 1999, 269, 94-104. The catalytic domains of human JAK1 (a.a. 837-1142), JAK2 (a.a. 828-1132) and JAK3 (a.a. 781-1124) were expressed using baculovirus in insect cells and purified. The catalytic activity of JAK1, JAK2 or JAK3 was assayed by measuring the phosphorylation of a biotinylated peptide. The phosphorylated peptide was detected by homogenous time resolved fluorescence (HTRF). IC50s of compounds were measured for each kinase in the 40 μL reactions that contain the enzyme, ATP and 500 nM peptide in 50 mM Tris (pH 7.8) buffer with 100 mM NaCl, 5 mM DTT, and 0.1 mg/mL (0.01%) BSA. For the 1 mM IC50 measurements, ATP concentration in the reactions was 1 mM. Reactions were carried out at room temperature for 1 hour and then stopped with 20 μL 45 mM EDTA, 300 nM SA-APC, 6 nM Eu-Py20 in assay buffer (Perkin Elmer, Boston, Mass.). Binding to the Europium labeled antibody took place for 40 minutes and HTRF signal was measured on a PHERA star plate reader (BMG, Cary, N.C.). The Example compounds were each tested in the Example A assay (see Table 1 for data for the compounds of the examples as tested by the assay of Example A at 1 mM ATP).
row,JAK2/JAK1,SMILES
1,>10,"C[C@@H](O)c1nc2cnc3ccsc3c2n1C1CCC(O)(CC#N)CC1 (single isomer, unassigned) [24 (first peak)]"
2,>10,"C[C@@H](O)c1nc2cnc3ccsc3c2n1C1CCC(O)(CC#N)CC1 (single isomer, unassigned) [24 (second peak)]"
3,>2,"C[C@@H](O)c1nc2cnc3ccsc3c2n1C1CCC(NCCC#N)CC1 (single isomer, unassigned) [30 (first peak)]"
4,>10,"C[C@@H](O)c1nc2cnc3ccsc3c2n1C1CCC(NCCC#N)CC1 (single isomer, unassigned) [30 (second peak)]"
5,>10,"C[C@@H](O)c1nc2cnc3ccsc3c2n1[C@H]1CC[C@H](CC#N)CC1 [Example 2, (trans-4-{2-[(1R)-1-Hydroxyethyl]-1H-imidazo[4,5-d]thieno[3,2-b]pyridin-1-yl}cyclohexyl)acetonitrile]"
6,>10,"C[C@@H](O)c1nc2cnc3ccsc3c2n1[C@H]1CC[C@H](O)CC1 [Example 3, trans-4-{2-[(1R)-1-Hydroxyethyl]-1Z-imidazo[4,5-d]thieno[3,2-b]pyridin-1-yl}cyclohexanol]"
7,>10,"C[C@@H](O)c1nc2cnc3ccsc3c2n1[C@H]1CC[C@@H](C#N)CC1 [Example 7, cis-4-{2-[(1R)-1-Hydroxyethyl]-1H-imidazo[4,5-d]thieno[3,2-b]pyridin-1-yl}cyclohexanecarbonitrile]"
8,>10,"C[C@@H](O)c1nc2cnc3ccsc3c2n1[C@H]1CC[C@H](CCC#N)CC1 [Example 8, 3-(trans-4-{2-[(1R)-1-Hydroxyethyl]-1H-imidazo[4,5-d]thieno[3,2-b]pyridin-1-yl}cyclohexyl)propanenitrile]"
9,>10,"C[C@@H](O)c1nc2cnc3ccsc3c2n1[C@H]1CC[C@H](CC#N)CC1.Cl [Example 10, (trans-4-{2-[(1R)-1-Hydroxyethyl]-1H-imidazo[4,5-d]thieno[3,2-b]pyridin-1-yl}cyclohexyl)acetonitrile HCl Salt]"
10,>10,"C[C@@H](O)c1nc2cnc3ccsc3c2n1C1CCN(CCC#N)CC1 [Example 16, 3-(4-{2-[(1R)-1-Hydroxyethyl]-1H-imidazo[4,5-d]thieno[3,2-b]pyridin-1-yl}piperidin-1-yl)propanenitrile]"

# Second part, the compound before the results:
row,SMILES,JAK2/JAK1
1,"Cc1nc2cnc3ccsc3c2n1[C@H]1CC[C@H](CC#N)[C@@H](O)C1 (single isomer, unassigned) [41 (first peak)]",>10
2,"N#CCC1CCC(CO)(n2cnc3cnc4ccsc4c32)CC1 (single isomer, unassigned) [72 (second peak), [4-(Hydroxymethyl)-4-(1H-imidazo[4,5-d]thieno[3,2-b]pyridin-1-yl)cyclohexyl]acetonitrile]",>5
3,"C[C@@H](O)c1nc2cnc3ccsc3c2n1C1CCNCC1F (stereo partly drawn) [9 (2nd peak), (1R)-1-[1-(3-Fluoropiperidin-4-yl)-1H-imidazo[4,5-d]thieno[3,2-b]pyridin-2-yl]ethanol]",>10
4,"C[C@@H](O)c1nc2cnc3ccsc3c2n1[C@H]1CCCOC1 [Example 1, (1R)-1-{1-[(3S)-Tetrahydro-2H-pyran-3-yl]-1H-imidazo[4,5-d]thieno[3,2-b]pyridin-2-yl}ethanol]",>3
5,"C[C@@H](O)c1nc2cnc3ccsc3c2n1[C@H]1CC[C@H](NCC(F)(F)F)CC1 [Example 4, (1R)-1-(1-{trans-4-[(2,2,2-Trifluoroethyl)amino]cyclohexyl}-1H-imidazo[4,5-d]thieno[3,2-b]pyridin-2-yl)ethanol]",>10
6,"C[C@@H](O)c1nc2cnc3ccsc3c2n1[C@H]1CC[C@H](CCS(C)(=O)=O)CC1 [Example 5, (1R)-1-(1-{trans-4-[2-(Methylsulfonyl)ethyl]cyclohexyl}-1H-imidazo[4,5-d]thieno[3,2-b]pyridin-2-yl)ethanol]",>10
7,"C[C@@H](O)c1nc2cnc3ccsc3c2n1[C@H]1CC[C@@H](n2cncn2)CC1 [Example 6, (1R)-1-{1-[cis-4-(1H-1,2,4-Triazol-1-yl)cyclohexyl]-1H-imidazo[4,5-d]thieno[3,2-b]pyridin-2-yl}ethanol]",>6
8,"C[C@@H](O)c1nc2cnc3ccsc3c2n1[C@H]1CC[C@H](CO)CC1 [Example 11, (1R)-1-{1-[trans-4-(Hydroxymethyl)cyclohexyl]-1H-imidazo[4,5-d]thieno[3,2-b]pyridin-2-yl}ethanol]",>10
9,"C[C@@H](O)c1nc2cnc3ccsc3c2n1[C@H]1CC[C@H](CF)CC1 [Example 12, (1R)-1-{1-[trans-4-(Fluoromethyl)cyclohexyl]-1H-imidazo[4,5-d]thieno[3,2-b]pyridin-2-yl}ethanol]",>10
10,"C[C@@H](O)c1nc2cnc3ccsc3c2n1C1CCCCC1 [Example 13, (1R)-1-(1-Cyclohexyl-1H-imidazo[4,5-d]thieno[3,2-b]pyridin-2-yl)ethanol]",>10
11,"CNS(=O)(=O)C[C@H]1CC[C@H](n2c([C@@H](C)O)nc3cnc4ccsc4c32)CC1 [Example 14, 1-(trans-4-{2-[(1R)-1-hydroxyethyl]-1H-imidazo[4,5-d]thieno[3,2-b]pyridin-1-yl}cyclohexyl)-N-methylmethanesulfonamide]",>5
12,"C[C@@H](O)c1nc2cnc3ccsc3c2n1C1CCN(CC(F)(F)F)CC1 [Example 15, (1R)-1-{1-[1-(2,2,2-Trifluoroethyl)piperidin-4-yl]-1H-imidazo[4,5-d]thieno[3,2-b]pyridin-2-yl}ethanol]",>9
13,"N#CC[C@H]1CC[C@H](n2c(CO)nc3cnc4ccsc4c32)CC1 [Example 17, {trans-4-[2-(Hydroxymethyl)-1H-imidazo[4,5-d]thieno[3,2-b]pyridin-1-yl]cyclohexyl}acetonitrile]",>10
14,"CS(=O)(=O)NCc1nc2cnc3ccsc3c2n1[C@H]1CC[C@H](CC#N)CC1 [Example 18, N-({1-[trans-4-(Cyanomethyl)cyclohexyl]-1H-imidazo[4,5-d]thieno[3,2-b]pyridin-2-yl}methyl)methanesulfonamide]",>10
15,"C[C@@H](O)c1nc2cnc3ccsc3c2n1[C@H]1CCC(CO)OC1 (stereo partly drawn) [Example 19, (1R)-1-{1-[(3S)-6-(Hydroxymethyl)tetrahydro-2H-pyran-3-yl]-1H-imidazo[4,5-d]thieno[3,2-b]pyridin-2-yl}ethanol]",>10
16,"C[C@@H](O)c1nc2cnc3ccsc3c2n1[C@H]1CC[C@H](CC#N)OC1 [Example 20, ((2R,5S)-5-{2-[(1R)-1-Hydroxyethyl]-1H-imidazo[4,5-d]thieno[3,2-b]pyridin-1-yl}tetrahydro-2H-pyran-2-yl)acetonitrile]",>10
17,"C[C@@H](O)c1nc2cnc3ccsc3c2n1[C@H]1CC[C@@H](CC#N)OC1 [Example 21, ((2S,5S)-5-{2-[(1R)-1-Hydroxyethyl]-1H-imidazo[4,5-d]thieno[3,2-b]pyridin-1-yl}tetrahydro-2H-pyran-2-yl)acetonitrile]",>10
18,"CS(=O)(=O)NCc1nc2cnc3ccsc3c2n1[C@H]1CC2CCC1C2 (stereo partly drawn) [Example 22, N-((1-((2S)-Bicyclo[2.2.1]heptan-2-yl)-1H-imidazo[4,5-d]thieno[3,2-b]pyridin-2-yl)methyl)methanesulfonamide]",>4
